Earlier results as cited in patent US20080248140A1, “COMPOSITION FOR SUPPORTING RESTFUL SLEEP” (priority 2007, published 2008).

Columns and labels:
[1] = normal subjects (Mayer et al. 1996)
GABA(A) receptor = conditions: activity produced by muscimol; Yuan et al. 2004

C/C1=C2/[N-][C@H]([C@H](CC(N)=O)[C@@]2(C)CCC(=O)NC[C@@H](C)OP(=O)([O-])O[C@H]2[C@@H](O)[C@@H](n3cnc4cc(C)c(C)cc43)O[C@@H]2CO)[C@]2(C)N=C(/C(C)=C3N=C(/C=C4N=C1[C@@H](CCC(N)=O)C\4(C)C)[C@@H](CCC(N)=O)[C@]\3(C)CC(N)=O)[C@@H](CCC(N)=O)[C@]2(C)CC(N)=O.[CH3-].[Co+3] [Methylcobalamin]
quality of sleep and post-sleep restfulness [1]: increases in the quality of sleep and feelings of post-sleep restfulness

CC1=C2[C@H](/C=C(\C)C(=O)O)CC[C@@H](C)[C@H]2CC1 [Valerinic acid]
neural activity in the brainstem (GABA(A) receptor): decrease neural activity in the brainstem
